Assay results: publication PMC3504033, “Inhibition of Angiotensin-Converting Enzyme Activity by Flavonoids: Structure-Activity Relationship Studies” (PLoS ONE, 2012)
Read-outs that look alike come from different tables or passages of the source. One block for each compound: values may come before it.

How the values were obtained:
[1] = target: T1, Angiotensin-I Converting Enzyme from rabbit lung (Oryctolagus cuniculus, UniProt P12822); experiment: ACE-inhibitory (ACEI) activity, fluorimetric assay with o-Abz-Gly-p-Phe(NO2)-Pro substrate; format: biochemical; conditions: for inhibition at 100 µM / inhibition at 500 µM: 0.5 h; for inhibition at 100 µM: mean of three experiments (Figure 2A); for relative IC50 ratio: IC50 relative to luteolin (1); for IC50: technical and biological triplicate, read-out: IC50 value (concentration that inhibits ACE activity by 50%); for change of ACEI activity on structural change, vs. luteolin: compared with luteolin (Figure 3)
T1 construct: Angiotensin-I Converting Enzyme from rabbit lung; purchased Sigma (Barcelona, Spain); host or cells: rabbit lung tissue
T1 sequence (P12822 34-1310): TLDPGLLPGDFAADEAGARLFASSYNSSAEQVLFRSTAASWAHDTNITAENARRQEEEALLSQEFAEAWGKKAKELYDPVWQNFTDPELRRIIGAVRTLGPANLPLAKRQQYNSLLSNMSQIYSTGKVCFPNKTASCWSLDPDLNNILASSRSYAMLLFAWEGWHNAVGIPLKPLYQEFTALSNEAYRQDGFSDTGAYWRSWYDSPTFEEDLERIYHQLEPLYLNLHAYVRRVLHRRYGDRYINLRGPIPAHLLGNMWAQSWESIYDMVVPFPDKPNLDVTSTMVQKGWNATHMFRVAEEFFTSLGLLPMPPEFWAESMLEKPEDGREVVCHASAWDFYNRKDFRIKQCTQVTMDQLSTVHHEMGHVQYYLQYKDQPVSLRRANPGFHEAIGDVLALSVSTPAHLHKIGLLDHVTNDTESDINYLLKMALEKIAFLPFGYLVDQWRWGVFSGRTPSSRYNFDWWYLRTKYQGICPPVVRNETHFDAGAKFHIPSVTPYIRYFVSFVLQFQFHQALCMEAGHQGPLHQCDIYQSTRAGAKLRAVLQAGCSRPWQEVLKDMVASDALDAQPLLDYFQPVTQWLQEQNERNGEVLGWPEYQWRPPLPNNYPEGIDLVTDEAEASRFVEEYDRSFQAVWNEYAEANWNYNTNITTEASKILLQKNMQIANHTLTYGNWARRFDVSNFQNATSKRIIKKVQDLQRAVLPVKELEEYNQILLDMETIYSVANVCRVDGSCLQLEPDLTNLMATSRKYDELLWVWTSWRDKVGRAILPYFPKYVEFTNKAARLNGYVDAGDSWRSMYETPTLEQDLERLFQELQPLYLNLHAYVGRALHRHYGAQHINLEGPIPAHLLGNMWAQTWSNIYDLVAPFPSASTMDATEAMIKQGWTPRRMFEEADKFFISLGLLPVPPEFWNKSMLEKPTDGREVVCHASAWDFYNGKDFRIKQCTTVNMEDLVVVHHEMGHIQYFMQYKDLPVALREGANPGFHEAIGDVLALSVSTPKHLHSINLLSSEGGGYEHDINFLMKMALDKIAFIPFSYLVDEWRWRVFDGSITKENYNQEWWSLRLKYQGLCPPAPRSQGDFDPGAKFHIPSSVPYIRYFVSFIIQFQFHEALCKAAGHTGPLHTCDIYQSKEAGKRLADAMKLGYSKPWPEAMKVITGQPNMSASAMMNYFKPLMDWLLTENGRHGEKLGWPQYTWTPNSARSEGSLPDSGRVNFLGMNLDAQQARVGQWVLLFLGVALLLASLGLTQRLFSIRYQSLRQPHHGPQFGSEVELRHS
Text: o-aminobenzoylglycyl-p-nitro-phenylalanylproline (o-ABz-Gly-Phe(NO2)-Pro) was purchased from Bachem Feinchemikalien (Bubendorf, Switzerland). Five units of Angiotensin-I Converting Enzyme from rabbit lung and ZnCl2 were obtained from Sigma (Barcelona, Spain). […] Flavonoids were solubilized in dimethyl sulfoxide (DMSO) and prepared daily. In all experiments, the final concentration of DMSO was 0.4%. Distilled water was obtained from a Millipore Milli-Q® system.
Flavonoid solutions (100 and 500 µM) were prepared in DMSO (0.4%) daily. The 0.1 U/mL ACE solution stock was prepared in glycerol: water (1∶1), aliquoted and stored at −20°C. The 0.1 µM ZnCl2 stock solution was prepared and stored at 4°C. The ACE working solution was prepared daily by diluting it in 150 mM Tris buffer (pH 8.3) containing 0.1 µM ZnCl2.
ACEI activity was measured by a fluorimetric assay following the method of Sentandreu and Toldrá [43] with some modifications. […] Fluorescence was measured after 30 min in 96-well microplates (Thermo Scientific, Rochester, NY) using a multiscan microplate fluorimeter (Biotek. FL×800). Microplates (Thermo Scientific, Rochester, NY) were used in this assay. The excitation and emission wavelengths were 360 and 430 nm, respectively. The activity of each sample was tested in technical and biological triplicate.
The ACEI activity was calculated using the following formula: [drawing 1] where A is the fluorescence without the flavonoid solution, B is the fluorescence without ACE and C is the fluorescence in the presence of both ACE and the flavonoid solution. A flavonoid solution of 500 µM was selected on the basis of previous studies, [35], and the concentration of 100 µM was chosen because it is within the physiological concentration range. […] The IC50 of each selected flavonoid was tested in technical and biological triplicate. The results from three experiments are expressed as the mean ± SD and were performed in different platelet samples.

ACE N domain = tested on: ACE N domain; set-up: method as in PMID 11303049; conditions: ACE inhibition with N-domain-specific inhibitor; cited from earlier work
[2] = 100 µM flavonoid, purified lung ACE, 37°C, 30 min, read-out: percentage of ACE inhibition
[3] = read-out: percentage of ACE inhibition, 100 µM flavonoid, purified lung ACE, 37°C, 30 min
[4] = 500 µM flavonoid, purified lung ACE, 37°C, 30 min, mean of three experiments (Figure 2B), read-out: percentage of ACE inhibition

SMILES: O=C1C[C@@H](c2ccc(O)cc2)Oc2cc(O)cc(O)c21.[K] [Naringenin K]
percentage of ACE inhibition ([1]; 500 µM flavonoid, purified lung ACE, 37°C, 30 min, mean of three experiments (Figure 2B), listed as narigenin K): higher than 30%

SMILES: O=c1c(O)c(-c2ccc(O)c(O)c2)oc2cc(O)cc(O)c12 [Quercetin]
change of ACEI activity on structural change, vs. luteolin ([1]; 100 µM): −44%
inhibition at 100 µM [1, 3]: > 30%

SMILES: O=C1C[C@@H](c2ccc(O)cc2)Oc2cc(O)cc(O)c21 [Naringenin]
change of ACEI activity on structural change, vs. apigenin ([1]; 100 µM, compared with apigenin (Figure 3)): −91%
reduction of ACEI activity vs. apigenin ([1]; 100 µM, vs. apigenin): 91%
inhibition at 100 µM [1, 2]: 2.3%
inhibition at 500 µM [1, 4]: 22.3%

SMILES: C[C@@H]1O[C@@H](O[C@H]2[C@H](Oc3cc(O)c4c(c3)O[C@H](c3ccc(O)cc3)CC4=O)O[C@H](CO)[C@@H](O)[C@@H]2O)[C@H](O)[C@H](O)[C@H]1O [Naringin]
inhibition at 100 µM [1, 2]: 4.5%
inhibition at 500 µM [1, 4]: 23.3%

SMILES: COc1ccc(-c2cc(=O)c3c(O)cc(O[C@@H]4O[C@H](CO[C@@H]5O[C@@H](C)[C@H](O)[C@@H](O)[C@H]5O)[C@@H](O)[C@H](O)[C@H]4O)cc3o2)cc1O [Diosmin]
inhibition at 100 µM [1, 2]: 9.3%
inhibition at 500 µM [1, 4]: > 30%

SMILES: COc1ccc(C2CC(=O)c3c(O)cc(OC4OC(COC5OC(C)C(O)C(O)C5O)C(O)C(O)C4O)cc3O2)cc1O (centres unmarked) [Hesperidin]
inhibition at 100 µM [1, 3]: 0%
inhibition at 500 µM ([1]; read-out: percentage of ACE inhibition, 500 µM flavonoid, purified lung ACE, 37°C, 30 min, mean of three experiments (Figure 2B)): 17%

SMILES: O=c1cc(-c2ccc(O)cc2)oc2cc(O)cc(O)c12 [Apigenin]
change of ACEI activity on structural change, vs. luteolin ([1]; 100 µM): −57%
reduction of ACEI activity relative to luteolin ([1]; 100 µM): 57%
inhibition at 100 µM [1, 2]: 24.7%

SMILES: CC(=O)N[C@@H](CC(=O)O)C(=O)N[C@@H](Cc1ccccc1)P(=O)(O)C[C@@H](C)C(=O)N[C@@H](C)C(N)=O [RXP407]
effect on blood pressure regulation (ACE N domain): no effect on blood pressure regulation

SMILES: O=c1cc(-c2ccc(O)cc2)oc2cc(O)cc(O)c12.[K] [Apigenin K]
relative IC50 ratio [1]: 8.52
IC50 [1]: 196 µM

Other lines, results leading:

inhibition at 100 µM [1, 2]: > 30%
relative IC50 ratio [1]: 7.96
IC50 [1]: 183 µM
SMILES: C[C@@H]1O[C@@H](O[C@H]2[C@H](Oc3cc(O)c4c(=O)cc(-c5ccc(O)cc5)oc4c3)O[C@H](CO)[C@@H](O)[C@@H]2O)[C@H](O)[C@H](O)[C@H]1O [Rhoifolin, apigenin 7-O-glycoside]

inhibition at 100 µM [1, 2]: 25.7%
inhibition at 500 µM [1, 4]: > 30%
SMILES: O=c1c(-c2ccc(O)cc2)coc2cc(O)cc(O)c12 [Genistein]

inhibition at 100 µM [1, 2]: > 30%
relative IC50 ratio [1]: 7.74
increase in the IC50 relative to quercetin ([1]; relative to quercetin): 4 fold
IC50 [1]: 178 µM
SMILES: O=c1c(O)c(-c2ccc(O)cc2)oc2cc(O)cc(O)c12 [Kaempferol]

relative IC50 ratio [1]: 1
IC50 [1]: 23 µM
SMILES: O=c1cc(-c2ccc(O)c(O)c2)oc2cc(O)cc(O)c12 [Luteolin]

change of ACEI activity on structural change, vs. luteolin ([1]; 100 µM): −78%
reduction of ACEI activity relative to luteolin ([1]; 100 µM): 78%
inhibition at 100 µM [1, 2]: 12.5%
SMILES: COc1ccc(-c2cc(=O)c3c(O)cc(O)cc3o2)cc1O [Diosmetin]

change of ACEI activity on structural change, vs. luteolin ([1]; 100 µM): −74%
inhibition at 100 µM [1, 2]: 15%
inhibition at 500 µM [1, 4]: > 30%
SMILES: Oc1cc(O)c2c(c1)O[C@H](c1ccc(O)c(O)c1)[C@H](O)C2 [Epicatechin]

inhibition at 100 µM [1, 2]: 0.7%
inhibition at 500 µM [1, 4]: > 30%
SMILES: COc1ccc([C@@H]2CC(=O)c3c(O)cc(O)cc3O2)cc1O [Hesperetin]

change of ACEI activity on structural change, vs. luteolin ([1]; 100 µM): -36%
inhibition at 100 µM [1, 2]: > 30%
relative IC50 ratio [1]: 2.78
IC50 [1]: 64 µM
SMILES: C[C@@H]1O[C@@H](OC[C@H]2O[C@@H](Oc3c(-c4ccc(O)c(O)c4)oc4cc(O)cc(O)c4c3=O)[C@H](O)[C@@H](O)[C@@H]2O)[C@H](O)[C@H](O)[C@H]1O [Rutin, quercetin 3-O-glycoside]

inhibition at 100 µM [1, 2]: 7.5%
inhibition at 500 µM [1, 4]: 29%
SMILES: Oc1cc(O)c2c(c1)O[C@H](c1ccc(O)c(O)c1)[C@@H](O)C2 [Catechin]
